Experiments:
[1] = ABTS radical scavenging assay; assay type: biochemical; conditions: for IC50: 30 min incubation, EtOH, absorbance at 734 nm; for ABTS-TEAC100: Trolox Equivalent Antioxidant Capacity vs 100 µM solution of the substance, from ABTS assay
Method: ABTS^+ radical was produced by reacting 2,2′-azino-bis-3-ethylbenzthiazoline-6-sulphonic acid (ABTS) 7 mM with K2S2O8 2.45 mM, both reactants dissolved in water, and at the volume ratio of 1:1. The mixture was stored in the dark at room temperature for 16 h. The ABTS^+ solution was diluted to give an absorbance of 0.750 ± 0.025 at 734 nm in EtOH. All the compounds tested were dissolved in EtOH. 150 µL of each compound solution was added to the wells of the 96-well plate, followed by the addition of 50 µL of the ABTS^+ radical solution. Final compound concentrations tested were 0, 5, 10, 20, 50, 100, 150, 200 µM. The absorbance change at 734 nm was recorded after 30 min incubation in the dark, and the percentage of radical scavenging was calculated for each concentration relative to a blank containing no scavenger. The degree of decolorization was calculated as the percentage reduction of absorbance. The ABTS^+ radical scavenging activity was calculated as follows: Percentage ABTS^+ radical scavenging activity = {1 − [As/Ac]} × 100(1) where As is the absorbance of the ABTS^+ radical solution containing samples and Ac the absorbance of the control solution without antioxidant. The percentages of ABTS^+ radical reduced were plotted against compound concentration. Trolox was used as a reference antioxidant. All the assays were carried out three times by quadruplicate for each compound.

[2] = Cytotoxicity in SH-SY5Y cells (MTT); assay type: cell-based; conditions: human, SH-SY5Y neuronal cells, concentration reducing cell viability to 50% of control
Method: So, to study the neuroprotectant potential of β-diketones in the SH-SY5Y cell line, we firstly need to determine their cytotoxicity in the same cellular model. […] In addition to that, within each series, the introduction of a second fluorine atom in the left-hand side phenyl ring decreases also the cytotoxicity.
SH-SY5Y cells were seeded into 96-well plates at a density of 5 × 10^3 cells/well and grown in the incubator for 24 h. All compounds tested were dissolved and eventually further diluted in dimethylsulfoxide (DMSO). After overnight incubation, the cells were treated with different test concentrations (5, 10, 20, 50, 100, 150, 200 µM) in a final volume of 200 µL with four replicates each. […] Cell proliferation or viability was measured using the 3-(4,5-dimethylthiazol-2-yl)-2,5-diphenyl tetrazolium bromide (MTT) assay. After 24 h, 20 µL of MTT (5 mg/mL) was added to each well and the plate was incubated at 37 °C in the dark for 2 h. Supernatants were removed and the formazan crystals were solubilized in DMSO (200 µL/well), under 10 min shaking at room temperature. The reduction of MTT was quantified by absorbance at 570 nm Varioskan microplate reader (Thermo Fisher Scientific, Vantaa, Finland). Effects of the test compounds on cell viability were calculated using cells treated with vehicle as control. The data were subjected to linear regression analysis and the regression lines were plotted for the best fit. The IC50 (inhibition of cell viability) concentrations were calculated using the respective dose-response curves.

[3] = Iron chelation capacity (Fe^+2-ferrozine complex); assay type: biochemical; conditions: aqueous media; for Fe^2+ binding capacity: 50 µM compound; for Fe^2+ chelating capacity: 200 µM compound
Method: To decrease the level of free Fe^2+ that can reduce H2O2 to the ^•OH radical and produce other ROS, it is worth to evaluate the iron chelation capacity of new potential AOX compounds as potential new therapeutic agents against neurodegenerative diseases. […] In this assay ferrozine form complexes with Fe^+2 in a quantitative manner, and in the presence of chelating compounds this complex is disrupted.
The iron chelation capacity was determined according to the method of Dinis et al., using ferrous chloride instead of ferrous sulfate. In this method, ferrozine can form complexes with a ferrous ion in a quantitative way yielding a red color with maximum absorbance at 562 nm. In the presence of other iron chelators, a decoloration is observed due to the competition with ferrozine for the metal. The assay was carried out in a 96 well plate. Serial dilutions of test compound (0, 5, 10, 25, 50, 100, 150, 200 µM) were dispensed (180 µL) into each well and then 10 µL of FeCl2 1 mM were added (final FeCl2 concentration, […]). After shaking the plate for 1 min, 10 µL of Ferrozine 2 mM were added. The mixture was shaken thoroughly and left to stand for 20 min at room temperature. The absorbance was measured at 562 nm with a Varioskan microplate reader. […] The compound iron chelation activity was calculated as the percentage of inhibition of the Fe^+2-Ferrozine complex by the formula in Equation (3):%Inhibition = {(Ao − As)/Ao} × 100(3) where Ao is the absorbance of the control, and As is the absorbance in the presence of the test compound. EDTA was used as a positive control. All the experiments were performed three times by quadruplicate for each compound concentration.

SH-SY5Y cells = experiment: LDH release assay in H2O2-treated SH-SY5Y cells; assay type: cell-based, human; conditions: compound 5-50 µM for 24 h, then 200 µM H2O2 for 24 h
Method: Additionally, the protection effect of 6b and 7b on cell death induced by 200 µM H2O2 was determined by measuring the lactate dehydrogenase (LDH) release in cell culture medium.
SH-SY5Y 96-well plates at a density of 5 × 10^3 cells/well and grown in the incubator for 24 h. Cells were pretreated for 24 h with different compound concentrations (5, 10, 20, 30, 40, 50 µM) and then exposed to 200 µM H2O2 for 24 h. Then, the supernatant was used in the LDH assay and the absorbance measured at 490nm in a Varioskan microplate reader after 30 min, according to the manufacturer’s instructions (LDH Cytotoxicity Assay Kit, Pierce^TM, Thermo Fisher Scientific, Vantaa, Finland). LDH leakage was calculated as the percentage of the control group.

Compound | IC50 [1] | ABTS-TEAC100 [1] | IC50 at 24 h [2] | Fe^2+ binding capacity [3] | Fe^2+ chelating capacity [3] | LDH leakage (SH-SY5Y cells)
O=C(/C=C(O)/C=C/c1cc(F)c(O)cc1F)C(F)(F)F [Compound 6b, (3Z,5E)-6-(2,5-difluoro-4-hydroxyphenyl)-1,1,1-trifluoro-4-hydroxyhexa-3,5-dien-2-one] | 116 ± 11 µM | 0.67 | 187 ± 13.2 µM | 7–8% | 25–26% | reduced the LDH leakage
O=C(/C=C(O)/C=C/c1ccc(O)c(F)c1F)C(F)(F)F [Compound 7b, (3Z,5E)-6-(2,3-Difluoro-4-hydroxyphenyl)-1,1,1-trifluoro-4-hydroxyhexa-3,5-dien-2-one] | 70.9 ± 5.8 µM | 0.62 | 200 ± 17.1 µM | 7–8% | 25–26% | reduced the LDH leakage

Reference: PMC6222706, “Evaluation of the Antioxidant and Neuroprotectant Activities of New Asymmetrical 1,3-Diketones” (Molecules : A Journal of Synthetic Chemistry and Natural …, 2018)
